Laboratory results published in patent publication US8889391B1 (Cargill, Incorporated, priority 2006, dated 2014).
Like-named read-outs stand apart in the source and are kept apart here.

Tests used:
[1] = target: BAAT-3-HP dehydrogenase system: Streptomyces avermitilis BAAT variant BAAT5-9 (P3H, S24T, D110N, F113L, A133T), SEQ ID NO: 19, coupled with P. putida 3-HP dehydrogenase (PpmmsB31), SEQ ID NO: 27 (Streptomyces avermitilis, UniProt Q82ER2, D110N/F113L/P3H/S24T); assay: biochemical; settings: pH 8, read-out: reduction of activity of the BAAT-3-HP dehydrogenase system
Protocol: The effect of acetate on the in vitro biological activity of BAAT enzymes in cell extracts was also measured using a coupled assay in which the malonyl semialdehyde product of the reaction catalyzed by BAAT was reduced by a 3-HP dehydrogenase. An extract of cells carrying the integrated BAAT5-9/PpmmsB31 was made by resuspending cells collected by centrifugation with Bugbuster (EMD/Novagen, Madison Wis.) as described by the manufacturer. […] The progress of the reaction was monitored as the decrease in A340 due to oxidation of the NADH. The effect of acetate or pyruvate was determined by adding up to 20 mM of either compound (as the neutral Na^+ salt).

[2] = test system: BAAT (BAAT5-9) in E. coli 11303 Δpta ΔadhE ΔfrdABCD ΔldhA Δpan(C-D) ΔpoxB INT(BAAT5-9/PpmmsB31) carrying pCEC/SapanD; assay: microbe, parasite or virus in culture; settings: for inhibition at 20000 µM / inhibition at 100000 µM: Escherichia coli
Protocol: A culture of E. coli 11303 Δpta ΔadhE ΔfrdABCD ΔldhA Δpan(C-D) ΔpoxB INT(BAAT5-9/PpmmsB31) carrying the vector pCEC/SapanD was grown in LB media with chloramphenicol at 30° C. This culture was used to inoculate 20 mL modified Overnight Express media (Novagen) to an initial OD600 of 0.05 in a 125 mL flask. Modification to the media included the replacement of Solution 1 with glucose at a concentration of 0.1% and arabinose at 2%, and addition of 20 uM Ca^2+ pantothenate, 25 ug/mL chloramphenicol, 100 uM pyridoxine-HCl and 1 mM IPTG. […] Glucose biotransformation medium consisted of M9 salts, 100 mM MOPS pH 8, 1% glucose, 500 uM IPTG, and 50 uM pyridoxine-HCl.
For aerobic biotransformations, 900 uL of the resuspended culture was aliquoted to a 14 mL Falcon tube and the volume was brought to 1 mL with water and/or sodium acetate (pH 7). For anaerobic biotransformations, 1.35 mL of the resuspended culture was aliquoted to a 1.8 mL glass vial and the volume was brought to 1.5 mL with water and/or sodium acetate(pH 7). Final concentrations of sodium acetate added were 0, 20 mM, and 100 mM, and biotransformation incubations were at 30° C. with shaking at 225 rpm. […] Culture supernatants were acidified with 0.05 volumes of 90% formic acid, centrifuged, filtered, and analyzed for 3-HP production as described in Example 8.

O=CCC(=O)O = assay: purified protein, by the assay type; settings: other: purified enzyme; NADH is the preferred reductant
[3] = substrate: O=CCC(=O)O; assay: ydfG dehydrogenase kinetics, purified enzyme; assay type: biochemical, E. coli; settings: other: purified enzyme; NADPH is the only cofactor used; 58.0 °C
Protocol: The ydfG gene was cloned into the pET28b vector (Novagen, Madison, Wis.) to allow purification and kinetic studies on purified protein. The primers used for this cloning had restriction sites added to allow cloning into NdeI and BamHI sites. […] (SEQ ID NO: 32) and […] (SEQ ID NO: 33). Fragment amplification was performed using Pfu DNA polymerase to minimize amplification errors, and used an annealing temperature of 58° C. A PCR product band of approximately 750 bp was gel-purified, digested with NdeI and BamHI, and ligated, using an NEB Quick Ligation method (New England BioLabs, Waverly Mass.), into pET28B vector that had been digested with the same enzymes. The ligation reaction was transformed into E. coli Electromax™ DH10B™ cells and plated on LB medium containing 25 μg/ml kanamycin. Plasmid DNA from a colony showing the correct insert size was sequenced and shown to be identical to the ydfG sequence from E. coli MG1655.

[4] = substrate: NCCC(=O)O; assay: purified protein, by the assay type; assay type: biochemical, Streptomyces avermitilis; settings: other: pH 8.0, 10 mM alpha-ketoglutarate, 25° C.
Protocol: Incubations were carried out at 25° C., and aliquots of 0.05 mL were removed at intervals of 30 seconds and added to 0.15 mL of reaction quench buffer (50% formic acid/50% 50 mM HEPPS pH 8). L-glutamate was determined by high-pressure ion exchange chromatography on an AMINOSep-511 column (Transgenomic) developed using mobile phases of pH 3.28 and pH 7.48 buffers from Pickering, followed by post-column derivatization with O-phthalaldehyde and fluorometric detection.

[5] = substrate: NCCC(=O)O; assay: purified protein, by the assay type; settings: other: pH 8.0, 10 mM alpha-ketoglutarate, 25° C.
[6] = read-out: reduction in 3-HP from beta-alanine
[7] = read-out: reduction in 3-HP from glucose

Molecule `CC(=O)O` [acetate] has an inhibition at 10000 µM [1] of roughly 50%, an inhibition at 20000 µM [2, 6] of 22% and an inhibition at 100000 µM [2, 6] of 47%. The inhibition at 20000 µM [2, 7] was 28%, the inhibition at 100000 µM [2, 7] was 52% and the “reduction in 3-HP” value ([2]; anaerobic conditions, acetate added (20 mM and 100 mM)) was 8-29%.

Molecule `CC(=O)C(=O)O` [pyruvate] has an inhibition at 10000 µM [1] of roughly 50%.

For “Pseudomonas aeruginosa 3-HP dehydrogenase (PammsB), SEQ ID NO: 21 (Pseudomonas aeruginosa PAO1)”, the Km (O=CCC(=O)O) was 4.5 mM.

B1: E. coli ydfG protein, SEQ ID NO: 31 (Escherichia coli K-12) (protein)
chain: MIVLVTGATAGFGECITRRFIQQGHKVIATGRRQERLQELKDELGDNLYIAQLDVRNRAAIEEMLASLPAEWCNIDILVNNAGLALGMEPAHKASVEDWETMIDTNNKGLVYMTRAVLPGMVERNHGHIINIGSTAGSWPYAGGNVYGATKAFVRQFSLNLRTDLHGTAVRVTDIEPGLVGGTEFSNVRFKGDDGKAEKTYQNTVALTPEDVSEAVWWVSTLPAHVNINTLEMMPVTQSYAGLNVHRQ
In the case of B1, the Km [3] is reported as 3.7 mM.

B2: Streptomyces avermitilis BAAT variant BAAT3ML (P3H, S24T, F113L, A133T), SEQ ID NO: 17 (Streptomyces avermitilis MA-4680 = NBRC 14893; F113L/P3H/S24T) (protein)
chain: MTHQPNPQVGAAVKAADRAHVFHTWSAQELIDPLAVAGAEGSYFWDYDGRRYLDFTSGLVFTNIGYQHPKVVAAIQEQAASLTTFAPAFAVEARSEAARLIAERTPGDLDKILFTNGGADAIEHAVRMARIHTGRPKVLSAYRSYHGGTQQAVNITGDPRRWASDSASAGVVHFWAPYLYRSRFYAETEQQECERALEHLETTIAFEGPGTIAAIVLETVPGTAGIMVPPPGYLAGVRELCDKYGIVFVLDEVMAGFGRTGEWFAADLFDVTPDLMTFAKGVNSGYVPLGGVAISGKIAETFGKRAYPGGLTYSGHPLACAAAVATINVMAEEGVVENAANLGARVIEPGLRELAERHPSVGEVRGVGMFWALELVKDRETREPLVPYNAAGEANAPMAAFGAAAKANGLWPFINMNRTHVVPPCNVTEAEAKEGLAALDAALSVADEYTV
For B2, the Km [4] was 21 mM.

B3: Streptomyces avermitilis BAAT variant BAAT5-9 (P3H, S24T, D110N, F113L, A133T), SEQ ID NO: 19 (Streptomyces avermitilis MA-4680 = NBRC 14893; … (protein)
chain: MTHQPNPQVGAAVKAADRAHVFHTWSAQELIDPLAVAGAEGSYFWDYDGRRYLDFTSGLVFTNIGYQHPKVVAAIQEQAASLTTFAPAFAVEARSEAARLIAERTPGDLNKILFTNGGADAIEHAVRMARIHTGRPKVLSAYRSYHGGTQQAVNITGDPRRWASDSASAGVVHFWAPYLYRSRFYAETEQQECERALEHLETTIAFEGPGTIAAIVLETVPGTAGIMVPPPGYLAGVRELCDKYGIVFVLDEVMAGFGRTGEWFAADLFDVTPDLMTFAKGVNSGYVPLGGVAISGKIAETFGKRAYPGGLTYSGHPLACAAAVATINVMAEEGVVENAANLGARVIEPGLRELAERHPSVGEVRGVGMFWALELVKDRETREPLVPYNAAGEANAPMAAFGAAAKANGLWPFINMNRTHVVPPCNVTEAEAKEGLAALDAALSVADEYTV
For B3, the Km [4] was 25 mM.

B4: Streptomyces avermitilis BAAT variant BAAT1 (S24T), SEQ ID NO: 6 (Streptomyces avermitilis MA-4680 = NBRC 14893; S24T) (protein)
chain: MTPQPNPQVGAAVKAADRAHVFHTWSAQELIDPLAVAGAEGSYFWDYDGRRYLDFTSGLVFTNIGYQHPKVVAAIQEQAASLTTFAPAFAVEARSEAARLIAERTPGDLDKIFFTNGGADAIEHAVRMARIHAGRPKVLSAYRSYHGGTQQAVNITGDPRRWASDSASAGVVHFWAPYLYRSRFYAETEQQECERALEHLETTIAFEGPGTIAAIVLETVPGTAGIMVPPPGYLAGVRELCDKYGIVFVLDEVMAGFGRTGEWFAADLFDVTPDLMTFAKGVNSGYVPLGGVAISGKIAETFGKRAYPGGLTYSGHPLACAAAVATINVMAEEGVVENAANLGARVIEPGLRELAERHPSVGEVRGVGMFWALELVKDRETREPLVPYNAAGEANAPMAAFGAAAKANGLWPFINMNRTHVVPPCNVTEAEAKEGLAALDAALSVADEYTV
B4 was tested, and the Km [4] was 7.3 mM.

B5: Streptomyces avermitilis BAAT variant BAAT3 (S24T, F113L, A133T), SEQ ID NO: 12 (Streptomyces avermitilis MA-4680 = NBRC 14893; F113L/S24T) (protein)
chain: MTPQPNPQVGAAVKAADRAHVFHTWSAQELIDPLAVAGAEGSYFWDYDGRRYLDFTSGLVFTNIGYQHPKVVAAIQEQAASLTTFAPAFAVEARSEAARLIAERTPGDLDKILFTNGGADAIEHAVRMARIHTGRPKVLSAYRSYHGGTQQAVNITGDPRRWASDSASAGVVHFWAPYLYRSRFYAETEQQECERALEHLETTIAFEGPGTIAAIVLETVPGTAGIMVPPPGYLAGVRELCDKYGIVFVLDEVMAGFGRTGEWFAADLFDVTPDLMTFAKGVNSGYVPLGGVAISGKIAETFGKRAYPGGLTYSGHPLACAAAVATINVMAEEGVVENAANLGARVIEPGLRELAERHPSVGEVRGVGMFWALELVKDRETREPLVPYNAAGEANAPMAAFGAAAKANGLWPFINMNRTHVVPPCNVTEAEAKEGLAALDAALSVADEYTV
With B5 the Km [4] was 14.7 mM.

B6: Streptomyces avermitilis beta-alanine/alpha-ketoglutarate aminotransferase (BAAT), wild type, SEQ ID NO: 4 (Streptomyces avermitilis MA-4680 = NBRC 14893) (protein)
chain: MTPQPNPQVGAAVKAADRAHVFHSWSAQELIDPLAVAGAEGSYFWDYDGRRYLDFTSGLVFTNIGYQHPKVVAAIQEQAASLTTFAPAFAVEARSEAARLIAERTPGDLDKIFFTNGGADAIEHAVRMARIHAGRPKVLSAYRSYHGGTQQAVNITGDPRRWASDSASAGVVHFWAPYLYRSRFYAETEQQECERALEHLETTIAFEGPGTIAAIVLETVPGTAGIMVPPPGYLAGVRELCDKYGIVFVLDEVMAGFGRTGEWFAADLFDVTPDLMTFAKGVNSGYVPLGGVAISGKIAETFGKRAYPGGLTYSGHPLACAAAVATINVMAEEGVVENAANLGARVIEPGLRELAERHPSVGEVRGVGMFWALELVKDRETREPLVPYNAAGEANAPMAAFGAAAKANGLWPFINMNRTHVVPPCNVTEAEAKEGLAALDAALSVADEYTV
Work on B6 yielded a Km [5] of 2.5 mM.
